Experimental data from patent US20260226493A1, “HERBICIDE RESISTANT PLANTS” (SYNGENTA CROP PROTECTION AG, priority 2023, published 2026).

Experiments:
Experiment in all cases: BIO3-BIO1 mutant enzyme activity in the presence of herbicide, percentage inhibition (fluorometric DAPA assay)
Format in all cases: biochemical
Conditions in all cases: read-out: percentage inhibition
[1] = target: T1, Arabidopsis thaliana BIO3-BIO1 (BioDA) mutants (Arabidopsis thaliana, UniProt B0F481, F348V)
T1 construct: with the predicted N-terminal mitochondrial transit peptide removed; 6xHis-tag (N); thrombin cleavage site (N); made in house; host or cells: E. coli BL21 (DE3) bioA
Procedure, shortened: (§1)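 Percentage inhibition compares activity at one of three herbicide concentrations against DMSO, from o-phthalaldehyde-derivatised DAPA fluorescence (ex 410, em 470 nm). Purified N-His BIO3-BIO1 variants (50 nM, E. coli-expressed) saw herbicide 10 min at 20 °C in pH 8.6 EPPS buffer, then 20 μM KAPA plus 100 μM spermidine for 75 min at 20 °C.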

[2] = target: T2, Arabidopsis thaliana BIO3-BIO1 (BioDA) mutants (Arabidopsis thaliana, UniProt B0F481, A609C)
T2 construct: with the predicted N-terminal mitochondrial transit peptide removed; 6xHis-tag (N); thrombin cleavage site (N); made in house; host or cells: E. coli BL21 (DE3) bioA
Procedure, shortened: as §1

[3] = target: T3, Arabidopsis thaliana BIO3-BIO1 (BioDA) mutants (Arabidopsis thaliana, UniProt B0F481, A609H)
T3 construct: with the predicted N-terminal mitochondrial transit peptide removed; 6xHis-tag (N); thrombin cleavage site (N); made in house; host or cells: E. coli BL21 (DE3) bioA
Procedure, shortened: as §1

[4] = target: T4, Arabidopsis thaliana BIO3-BIO1 (BioDA) mutants (Arabidopsis thaliana, UniProt B0F481, F348Q)
T4 construct: with the predicted N-terminal mitochondrial transit peptide removed; 6xHis-tag (N); thrombin cleavage site (N); made in house; host or cells: E. coli BL21 (DE3) bioA
Procedure, shortened: as §1

[5] = target: T5, Arabidopsis thaliana BIO3-BIO1 (BioDA) mutants (Arabidopsis thaliana, UniProt B0F481, L786S)
T5 construct: with the predicted N-terminal mitochondrial transit peptide removed; 6xHis-tag (N); thrombin cleavage site (N); made in house; host or cells: E. coli BL21 (DE3) bioA
Procedure, shortened: as §1

[6] = target: T6, Arabidopsis thaliana BIO3-BIO1 (BioDA) mutants (Arabidopsis thaliana, UniProt B0F481, V354A)
T6 construct: with the predicted N-terminal mitochondrial transit peptide removed; 6xHis-tag (N); thrombin cleavage site (N); made in house; host or cells: E. coli BL21 (DE3) bioA
Procedure, shortened: as §1

[7] = target: T7, Arabidopsis thaliana BIO3-BIO1 (BioDA) mutants (Arabidopsis thaliana, UniProt B0F481, W392S)
T7 construct: with the predicted N-terminal mitochondrial transit peptide removed; 6xHis-tag (N); thrombin cleavage site (N); made in house; host or cells: E. coli BL21 (DE3) bioA
Procedure, shortened: as §1

[8] = target: T8, Arabidopsis thaliana BIO3-BIO1 (BioDA) mutants (Arabidopsis thaliana, UniProt B0F481, T512G)
T8 construct: with the predicted N-terminal mitochondrial transit peptide removed; 6xHis-tag (N); thrombin cleavage site (N); made in house; host or cells: E. coli BL21 (DE3) bioA
Procedure, shortened: as §1

[9] = target: T9, Arabidopsis thaliana BIO3-BIO1 (BioDA) mutants (Arabidopsis thaliana, UniProt B0F481, S509D)
T9 construct: with the predicted N-terminal mitochondrial transit peptide removed; 6xHis-tag (N); thrombin cleavage site (N); made in house; host or cells: E. coli BL21 (DE3) bioA
Procedure, shortened: as §1

[10] = target: T10, Arabidopsis thaliana BIO3-BIO1 (BioDA) mutants (Arabidopsis thaliana, UniProt B0F481, Y511D)
T10 construct: with the predicted N-terminal mitochondrial transit peptide removed; 6xHis-tag (N); thrombin cleavage site (N); made in house; host or cells: E. coli BL21 (DE3) bioA
Procedure, shortened: as §1

[11] = target: T11, Arabidopsis thaliana BIO3-BIO1 (BioDA) mutants (Arabidopsis thaliana, UniProt B0F481, T512W)
T11 construct: with the predicted N-terminal mitochondrial transit peptide removed; 6xHis-tag (N); thrombin cleavage site (N); made in house; host or cells: E. coli BL21 (DE3) bioA
Procedure, shortened: as §1

[12] = target: T12, Arabidopsis thaliana BIO3-BIO1 (BioDA) mutants (Arabidopsis thaliana, UniProt B0F481, S509R)
T12 construct: with the predicted N-terminal mitochondrial transit peptide removed; 6xHis-tag (N); thrombin cleavage site (N); made in house; host or cells: E. coli BL21 (DE3) bioA
Procedure, shortened: as §1

T3 sequence (B0F481 23-833 A609H): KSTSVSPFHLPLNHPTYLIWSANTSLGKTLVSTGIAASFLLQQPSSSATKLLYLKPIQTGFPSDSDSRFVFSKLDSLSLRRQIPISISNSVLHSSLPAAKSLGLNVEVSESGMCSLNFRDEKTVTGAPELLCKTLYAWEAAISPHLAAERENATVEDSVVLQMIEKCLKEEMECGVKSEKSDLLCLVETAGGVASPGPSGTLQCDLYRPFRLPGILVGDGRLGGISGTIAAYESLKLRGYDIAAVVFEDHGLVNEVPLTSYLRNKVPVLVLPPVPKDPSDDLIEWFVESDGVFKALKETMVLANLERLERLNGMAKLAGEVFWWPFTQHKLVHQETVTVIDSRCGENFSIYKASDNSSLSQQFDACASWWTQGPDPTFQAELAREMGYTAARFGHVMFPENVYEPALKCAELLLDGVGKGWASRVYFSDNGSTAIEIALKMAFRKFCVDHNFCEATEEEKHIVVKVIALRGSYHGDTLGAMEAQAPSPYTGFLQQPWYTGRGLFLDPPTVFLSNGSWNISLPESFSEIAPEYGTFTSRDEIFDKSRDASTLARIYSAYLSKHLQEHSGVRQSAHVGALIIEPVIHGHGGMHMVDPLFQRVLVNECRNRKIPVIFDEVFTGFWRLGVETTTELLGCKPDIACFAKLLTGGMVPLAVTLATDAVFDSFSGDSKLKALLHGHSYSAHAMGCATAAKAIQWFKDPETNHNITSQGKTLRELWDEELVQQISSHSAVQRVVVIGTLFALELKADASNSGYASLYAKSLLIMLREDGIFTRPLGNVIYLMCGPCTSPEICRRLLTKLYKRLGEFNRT
T11 sequence (B0F481 23-833 T512W): as the sequence (B0F481 23-833 A609H) above, with T490W, H587A counted along it
T4 sequence (B0F481 23-833 F348Q): as the sequence (B0F481 23-833 A609H) above, with F326Q, H587A counted along it
T6 sequence (B0F481 23-833 V354A): as the sequence (B0F481 23-833 A609H) above, with V332A, H587A counted along it
T12 sequence (B0F481 23-833 S509R): as the sequence (B0F481 23-833 A609H) above, with S487R, H587A counted along it
T7 sequence (B0F481 23-833 W392S): as the sequence (B0F481 23-833 A609H) above, with W370S, H587A counted along it
T2 sequence (B0F481 23-833 A609C): as the sequence (B0F481 23-833 A609H) above, with H587C counted along it
T8 sequence (B0F481 23-833 T512G): as the sequence (B0F481 23-833 A609H) above, with T490G, H587A counted along it
T9 sequence (B0F481 23-833 S509D): as the sequence (B0F481 23-833 A609H) above, with S487D, H587A counted along it
T1 sequence (B0F481 23-833 F348V): as the sequence (B0F481 23-833 A609H) above, with F326V, H587A counted along it
T10 sequence (B0F481 23-833 Y511D): as the sequence (B0F481 23-833 A609H) above, with Y489D, H587A counted along it
T5 sequence (B0F481 23-833 L786S): as the sequence (B0F481 23-833 A609H) above, with H587A, L764S counted along it

Row | Compound | inhibition at 0.2 µM [1] [%] | inhibition at 1 µM [1] [%] | inhibition at 5 µM [1] [%] | inhibition at 0.2 µM [6] [%] | inhibition at 1 µM [6] [%] | inhibition at 5 µM [6] [%] | inhibition at 0.2 µM [7] [%] | inhibition at 1 µM [7] [%] | inhibition at 5 µM [7] [%] | inhibition at 0.2 µM [8] [%] | inhibition at 1 µM [8] [%] | inhibition at 5 µM [8] [%] | inhibition at 1 µM [2] [%] | inhibition at 1 µM [9] [%] | inhibition at 1 µM [3] [%] | inhibition at 1 µM [10] [%] | inhibition at 1 µM [4] [%] | inhibition at 1 µM [5] [%] | inhibition at 1 µM [11] [%] | inhibition at 1 µM [12] [%] | further results
1 | CCn1c(Cn2ccc(C(F)(F)F)n2)cc(=O)c(C(=O)O)c1-c1ccc(Cl)c(Cl)c1 [Compound L, 2-(3,4-dichlorophenyl)-1-ethyl-4-oxo-6-[[3-(trifluoromethyl)pyrazol-1-yl]methyl]pyridine-3-carboxylic acid] | – | – | – | – | – | – | – | – | – | – | – | – | – | – | – | – | – | – | – | – | inhibition at 0.01 µM [1]: 10%; inhibition at 0.075 µM [1]: 15%; inhibition at 0.5 µM [1]: 11%; inhibition at 0.01 µM [2]: 4%; inhibition at 0.075 µM [2]: 22%; inhibition at 0.5 µM [2]: 30%; inhibition at 0.01 µM [3]: 0%; inhibition at 0.075 µM [3]: 0%; inhibition at 0.5 µM [3]: 0%; inhibition at 0.01 µM [4]: 0%; inhibition at 0.075 µM [4]: 0%; inhibition at 0.5 µM [4]: 3%; inhibition at 0.01 µM [5]: 11%; inhibition at 0.075 µM [5]: 31%; inhibition at 0.5 µM [5]: 93%
2 | CCn1c(C)c(-c2ccc(F)cc2F)c(=O)c(C(=O)O)c1-c1ccc(Cl)c(Cl)c1 [Compound C, 2-(3,4-dichlorophenyl)-5-(2,4-difluorophenyl)-1-ethyl-6-methyl-4-oxo-pyridine-3-carboxylic acid] | 0 | 0 | 1 | 0 | 26 | 75 | 0 | 0 | 20 | 17 | 57 | 92 | 73 | 91 | 7 | 93 | 0 | 84 | 83 | 87 | inhibition at 0.2 µM [2]: 29%; inhibition at 5 µM [2]: 94%; inhibition at 0.2 µM [9]: 59%; inhibition at 5 µM [9]: 103%; inhibition at 0.2 µM [3]: 0%; inhibition at 5 µM [3]: 20%; inhibition at 0.2 µM [10]: 68%; inhibition at 5 µM [10]: 99%; inhibition at 0.2 µM [4]: 3%; inhibition at 5 µM [4]: 25%; inhibition at 0.2 µM [5]: 26%; inhibition at 5 µM [5]: 98%; inhibition at 0.2 µM [11]: 50%; inhibition at 5 µM [11]: 95%; inhibition at 0.2 µM [12]: 42%; inhibition at 5 µM [12]: 98%
3 | CCn1c(-c2ccc(Cl)c(Cl)c2)c(C(=O)O)c(=O)c2cc(F)ccc21 [Compound M, 2-(3,4-dichlorophenyl)-1-ethyl-6-fluoro-4-oxo-quinoline-3-carboxylic acid] | 0 | 0 | 0 | 6 | 13 | 65 | 0 | 0 | 0 | 9 | 39 | 77 | 47 | 80 | 2 | 81 | 0 | 81 | 55 | 82 | inhibition at 0.2 µM [2]: 10%; inhibition at 5 µM [2]: 78%; inhibition at 0.2 µM [9]: 48%; inhibition at 5 µM [9]: 98%; inhibition at 0.2 µM [3]: 7%; inhibition at 5 µM [3]: 25%; inhibition at 0.2 µM [10]: 38%; inhibition at 5 µM [10]: 96%; inhibition at 0.2 µM [4]: 0%; inhibition at 5 µM [4]: 16%; inhibition at 0.2 µM [5]: 33%; inhibition at 5 µM [5]: 97%; inhibition at 0.2 µM [11]: 33%; inhibition at 5 µM [11]: 83%; inhibition at 0.2 µM [12]: 48%; inhibition at 5 µM [12]: 96%
4 | CCOC(=O)c1nn(-c2ccc3c(c2)OC(F)(F)C(F)(F)O3)c2cccc(C(C)=O)c2c1=O [Compound A, ethyl 5-acetyl-4-oxo-1-(2,2,3,3-tetrafluoro-1,4-benzodioxin-6-yl)cinnoline-3-carboxylate] | – | 4 | – | – | 9 | – | – | 23 | – | – | 5 | – | 18 | 9 | 0 | 10 | 7 | 80 | 0 | 15 | –
